The values below come from ChEMBL document CHEMBL3758163, “Extended structure-activity study of thienopyrimidine-based EGFR inhibitors with evaluation of drug-like properties” (Eur J Med Chem, 2016).

Molecules are shown by their SMILES. Values after ≈ are worked out from the molar mass of the structure shown. Some results are limits rather than exact numbers.

Chain of Platelet-derived growth factor receptor beta (Homo sapiens) (P09619 whole entry): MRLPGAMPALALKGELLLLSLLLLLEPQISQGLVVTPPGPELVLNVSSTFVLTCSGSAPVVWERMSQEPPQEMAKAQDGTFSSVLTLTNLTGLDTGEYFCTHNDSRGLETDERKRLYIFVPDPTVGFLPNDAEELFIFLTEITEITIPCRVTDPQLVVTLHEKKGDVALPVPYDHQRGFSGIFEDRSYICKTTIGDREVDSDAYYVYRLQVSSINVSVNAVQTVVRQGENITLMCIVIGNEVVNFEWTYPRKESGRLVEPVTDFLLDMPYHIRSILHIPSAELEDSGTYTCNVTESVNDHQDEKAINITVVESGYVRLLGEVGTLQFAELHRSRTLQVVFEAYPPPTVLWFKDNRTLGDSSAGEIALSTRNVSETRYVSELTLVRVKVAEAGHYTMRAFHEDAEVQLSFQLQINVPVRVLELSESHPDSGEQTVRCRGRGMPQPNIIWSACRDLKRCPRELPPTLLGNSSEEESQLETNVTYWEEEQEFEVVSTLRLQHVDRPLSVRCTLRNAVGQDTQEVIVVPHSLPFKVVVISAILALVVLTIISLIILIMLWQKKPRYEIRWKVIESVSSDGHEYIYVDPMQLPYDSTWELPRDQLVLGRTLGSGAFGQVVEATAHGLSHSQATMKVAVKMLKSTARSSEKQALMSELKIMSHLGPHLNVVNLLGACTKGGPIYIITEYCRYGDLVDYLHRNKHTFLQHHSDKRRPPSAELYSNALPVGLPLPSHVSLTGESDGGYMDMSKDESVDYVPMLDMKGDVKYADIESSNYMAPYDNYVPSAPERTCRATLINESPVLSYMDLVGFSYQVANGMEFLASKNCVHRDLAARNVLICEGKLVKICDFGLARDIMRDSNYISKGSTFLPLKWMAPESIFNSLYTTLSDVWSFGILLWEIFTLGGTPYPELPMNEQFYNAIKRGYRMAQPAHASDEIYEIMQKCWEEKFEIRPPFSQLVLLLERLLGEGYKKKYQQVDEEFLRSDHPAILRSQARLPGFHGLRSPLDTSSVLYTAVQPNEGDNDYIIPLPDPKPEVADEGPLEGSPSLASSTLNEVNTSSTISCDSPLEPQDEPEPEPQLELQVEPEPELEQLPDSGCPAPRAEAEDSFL
Chain of Glycogen synthase kinase-3 beta (Homo sapiens) (P49841 whole entry, looked up): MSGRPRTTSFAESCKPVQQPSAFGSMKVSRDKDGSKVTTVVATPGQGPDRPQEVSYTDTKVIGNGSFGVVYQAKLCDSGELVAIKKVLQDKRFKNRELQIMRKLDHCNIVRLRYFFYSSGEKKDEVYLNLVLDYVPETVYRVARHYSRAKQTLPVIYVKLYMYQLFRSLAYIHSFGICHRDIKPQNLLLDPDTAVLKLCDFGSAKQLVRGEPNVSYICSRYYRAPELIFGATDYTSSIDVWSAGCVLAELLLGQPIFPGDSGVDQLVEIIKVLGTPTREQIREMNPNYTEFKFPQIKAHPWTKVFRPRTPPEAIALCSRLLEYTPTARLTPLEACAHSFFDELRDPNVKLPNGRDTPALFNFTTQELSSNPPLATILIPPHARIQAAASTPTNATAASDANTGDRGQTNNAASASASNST

System in one data set: not listed separately
Briefly: Antiproliferative activity against human U937 cells after 72 hrs by CellTiter blue assay. The settings on record: U-937, 72 h. The class given is functional, cell-based. Background: The colour change of resazurin is a common sign of viable cells or microbes.
As a reminder, the IC50 is the midpoint of a concentration-inhibition curve. A higher IC50 goes with a need for much substance. `C#Cc1cccc(Nc2ncnc3cc(OCCOC)c(OCCOC)cc23)c1` [ERLOTINIB] registered an IC50 of 9.9 µM. This counts as single-digit micromolar.

System in a further data set: not listed separately
Briefly: Antiproliferative activity against human OVCAR3 cells after 72 hrs by CellTiter-Glo assay. It is filed as functional, cell-based. The settings on record: OVCAR-3, 72 h. (In general: Cellular ATP, detected with luciferase, serves as a proxy for viable cell number.)
`C#Cc1cccc(Nc2ncnc3cc(OCCOC)c(OCCOC)cc23)c1` [ERLOTINIB] came in with an IC50 of 4.6 µM.

The next data set has as its target Platelet-derived growth factor receptor beta (Homo sapiens) (UniProt P09619). The data set can be described thus: Inhibition of PDGFRB (unknown origin) at 500 nM.
Conditions: not given
Broadly, the inhibition is the drop in the measured response relative to a control, in per cent. `COc1cc(C(N)=O)ccc1-c1cc2c(N[C@H](CO)c3ccccc3)ncnc2s1`: the inhibition came to 8%.

In the case of `C#Cc1cccc(Nc2ncnc3cc(OCCOC)c(OCCOC)cc23)c1` [ERLOTINIB], the inhibition is -5%.

System in a further data set: not listed separately
Briefly: Antiproliferative activity against human PC9 cells after 96 hrs by Sytox green marker based fluorescence analysis. The class given is functional, cell-based. As to conditions: PC-9, 96 h.
With `C#Cc1cccc(Nc2ncnc3cc(OCCOC)c(OCCOC)cc23)c1` [ERLOTINIB], the IC50 came out at 0.07 µM.

Another data set concerns the target Dual specificity mitogen-activated protein kinase kinase 1 (Homo sapiens) (UniProt Q02750). Briefly: Inhibition of MAP2K1 (unknown origin) at 500 nM.
Conditions: not given
With `COc1cc(C(N)=O)ccc1-c1cc2c(N[C@H](CO)c3ccccc3)ncnc2s1`, the inhibition came to 10%.

A further data set concerns H9. Briefly: Antiproliferative activity against human H9 cells after 72 hrs by CellTiter-Glo assay. The class given is functional, cell-based. As to conditions: H9, 72 h.
For `C#Cc1cccc(Nc2ncnc3cc(OCCOC)c(OCCOC)cc23)c1` [ERLOTINIB], the IC50 was found to be 1.3 µM.

System in the next data set: not listed separately
The data set can be described thus: Toxicity in zebrafish embryo assessed as survival for 3.5 days. The class given is organism-based, Danio rerio. The settings on record: in vivo.
As a reminder, the LC50 is the concentration that kills 50% of the test population. Regarding `COc1cc(C(N)=O)ccc1-c1cc2c(N[C@H](CO)c3ccccc3)ncnc2s1`, the 50% lethal concentration (LC50) at 84 h is above 100 µM.

System in the next data set: not listed separately
The data set can be described thus: Half-life in human liver microsomes at 3 uM by LC-MS/MS analysis. The class given is ADME.
Conditions: not given
Background: Liver microsomes are vesicles of endoplasmic reticulum, rich in cytochrome P450 enzymes.
One may read the half-life as the time needed for the level to fall by half in the phase considered. Low values mean fast loss, high ones slow loss. Molecule `COc1cc(C(N)=O)ccc1-c1cc2c(N[C@H](CO)c3ccccc3)ncnc2s1` registered a half-life at 3 µM of 5.13 h.

Molecule `C#Cc1cccc(Nc2ncnc3cc(OCCOC)c(OCCOC)cc23)c1` [ERLOTINIB] returned a half-life at 3 µM of 0.533 h. Compared with the last molecule, the half-life at 3 µM is about 9.6-fold lower.

System in a further data set: not listed separately
Briefly: Aqueous solubility of compound in 0.01 M PBS buffer at pH 7.4 after 2 hrs by turbidimetric assay. The class given is physicochemical.
Conditions: not given
For orientation: solubility (kinetic) means solubility judged after dilution from a stock solution rather than from solid. For `C#Cc1cccc(Nc2ncnc3cc(OCCOC)c(OCCOC)cc23)c1` [ERLOTINIB], the kinetic solubility at 2 h stood at 20 µM (≈ 7.87 µg/mL). That is a double-digit micromolar value.

For another data set, the system named is MRC5. Briefly: Antiproliferative activity against human MRC5 cells after 72 hrs by CellTiter-Glo assay. As to conditions: MRC5, 72 h. The class given is cell-based.
In the case of `C#Cc1cccc(Nc2ncnc3cc(OCCOC)c(OCCOC)cc23)c1` [ERLOTINIB], half-maximal inhibition (IC50) required 5.8 µM.

For a further data set, the target named is Protein kinase C theta type (Homo sapiens) (UniProt Q04759). The data set can be described thus: Inhibition of PRKCQ (unknown origin) at 500 nM.
Chain of Protein kinase C theta type (Homo sapiens) (Q04759 whole entry, looked up): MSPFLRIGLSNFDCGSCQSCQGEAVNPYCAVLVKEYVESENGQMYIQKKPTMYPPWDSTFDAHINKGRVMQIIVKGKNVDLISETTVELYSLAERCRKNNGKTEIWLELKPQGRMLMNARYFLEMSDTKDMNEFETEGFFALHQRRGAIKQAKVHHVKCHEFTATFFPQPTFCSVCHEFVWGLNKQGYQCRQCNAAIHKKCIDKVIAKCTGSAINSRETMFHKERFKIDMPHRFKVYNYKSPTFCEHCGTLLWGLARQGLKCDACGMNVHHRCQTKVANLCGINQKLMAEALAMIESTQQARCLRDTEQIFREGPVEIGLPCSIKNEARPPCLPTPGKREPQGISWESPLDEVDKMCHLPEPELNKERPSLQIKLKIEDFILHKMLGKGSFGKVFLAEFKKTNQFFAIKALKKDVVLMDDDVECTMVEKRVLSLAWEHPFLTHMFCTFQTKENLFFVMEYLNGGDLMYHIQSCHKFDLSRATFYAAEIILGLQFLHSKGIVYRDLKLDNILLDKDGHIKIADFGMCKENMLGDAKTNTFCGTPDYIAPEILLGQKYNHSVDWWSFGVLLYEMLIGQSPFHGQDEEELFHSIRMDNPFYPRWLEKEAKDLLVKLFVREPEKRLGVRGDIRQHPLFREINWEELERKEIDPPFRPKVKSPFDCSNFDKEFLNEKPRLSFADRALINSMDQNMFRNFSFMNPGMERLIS
Conditions: not given
As for `COc1cc(C(N)=O)ccc1-c1cc2c(N[C@H](CO)c3ccccc3)ncnc2s1`, the inhibition was -2%.

Take `C#Cc1cccc(Nc2ncnc3cc(OCCOC)c(OCCOC)cc23)c1` [ERLOTINIB]: the inhibition is -4%.

A further data set deals with Mitogen-activated protein kinase 14 (Homo sapiens) (UniProt Q16539). Briefly: Inhibition of MAPK14 (unknown origin) at 500 nM.
Chain of Mitogen-activated protein kinase 14 (Homo sapiens) (Q16539 whole entry): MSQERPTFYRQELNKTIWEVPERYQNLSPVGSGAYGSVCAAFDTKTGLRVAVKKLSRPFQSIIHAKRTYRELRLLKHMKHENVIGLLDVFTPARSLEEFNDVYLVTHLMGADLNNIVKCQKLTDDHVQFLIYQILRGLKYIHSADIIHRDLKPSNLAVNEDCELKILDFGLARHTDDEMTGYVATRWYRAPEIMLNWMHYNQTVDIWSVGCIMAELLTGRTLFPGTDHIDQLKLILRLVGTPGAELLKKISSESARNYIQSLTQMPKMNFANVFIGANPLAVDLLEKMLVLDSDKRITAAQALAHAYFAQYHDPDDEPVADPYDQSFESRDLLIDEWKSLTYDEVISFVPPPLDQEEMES
Conditions: not given
Regarding `COc1cc(C(N)=O)ccc1-c1cc2c(N[C@H](CO)c3ccccc3)ncnc2s1`, the inhibition turned out to be 6%.

Consider `C#Cc1cccc(Nc2ncnc3cc(OCCOC)c(OCCOC)cc23)c1` [ERLOTINIB], for which the inhibition was 13%.

For a further data set, the target named is Angiopoietin-1 receptor (Homo sapiens) (UniProt Q02763). Briefly: Inhibition of TEK (unknown origin) at 500 nM.
Chain of Angiopoietin-1 receptor (Homo sapiens) (Q02763 whole entry): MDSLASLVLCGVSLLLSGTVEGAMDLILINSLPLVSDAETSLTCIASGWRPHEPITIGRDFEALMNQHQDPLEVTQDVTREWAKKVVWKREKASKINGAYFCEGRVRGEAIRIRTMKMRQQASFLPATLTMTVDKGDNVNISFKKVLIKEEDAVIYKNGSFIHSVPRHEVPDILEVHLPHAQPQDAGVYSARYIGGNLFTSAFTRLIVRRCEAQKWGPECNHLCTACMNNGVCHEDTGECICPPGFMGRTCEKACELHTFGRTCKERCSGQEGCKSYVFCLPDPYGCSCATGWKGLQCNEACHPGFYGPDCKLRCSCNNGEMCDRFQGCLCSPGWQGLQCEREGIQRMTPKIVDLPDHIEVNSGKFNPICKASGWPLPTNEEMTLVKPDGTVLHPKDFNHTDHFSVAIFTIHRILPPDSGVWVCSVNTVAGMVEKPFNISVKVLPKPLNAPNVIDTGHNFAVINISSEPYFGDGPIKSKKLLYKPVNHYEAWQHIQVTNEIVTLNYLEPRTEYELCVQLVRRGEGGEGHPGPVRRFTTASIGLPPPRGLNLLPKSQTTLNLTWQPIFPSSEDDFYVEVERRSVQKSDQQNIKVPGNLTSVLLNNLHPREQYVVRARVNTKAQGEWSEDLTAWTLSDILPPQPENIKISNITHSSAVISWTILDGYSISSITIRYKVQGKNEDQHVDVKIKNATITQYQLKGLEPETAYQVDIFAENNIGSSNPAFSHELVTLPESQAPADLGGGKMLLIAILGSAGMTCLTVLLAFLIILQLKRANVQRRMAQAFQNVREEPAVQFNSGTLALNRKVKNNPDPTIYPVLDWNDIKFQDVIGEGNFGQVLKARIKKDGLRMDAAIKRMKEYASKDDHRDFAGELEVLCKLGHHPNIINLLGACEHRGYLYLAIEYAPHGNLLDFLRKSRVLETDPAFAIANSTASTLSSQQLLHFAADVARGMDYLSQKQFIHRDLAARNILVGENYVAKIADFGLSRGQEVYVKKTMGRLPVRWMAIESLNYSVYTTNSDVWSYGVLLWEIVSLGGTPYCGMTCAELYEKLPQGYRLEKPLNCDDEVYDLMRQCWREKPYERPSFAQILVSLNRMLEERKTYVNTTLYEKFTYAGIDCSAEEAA
Conditions: not given
As for `COc1cc(C(N)=O)ccc1-c1cc2c(N[C@H](CO)c3ccccc3)ncnc2s1`, the inhibition was 7%.

Consider `C#Cc1cccc(Nc2ncnc3cc(OCCOC)c(OCCOC)cc23)c1` [ERLOTINIB], for which the inhibition was determined as 5%.

The next data set addresses T1, Ephrin type-A receptor 1 (Homo sapiens) (UniProt P21709).
T1 sequence (whole entry): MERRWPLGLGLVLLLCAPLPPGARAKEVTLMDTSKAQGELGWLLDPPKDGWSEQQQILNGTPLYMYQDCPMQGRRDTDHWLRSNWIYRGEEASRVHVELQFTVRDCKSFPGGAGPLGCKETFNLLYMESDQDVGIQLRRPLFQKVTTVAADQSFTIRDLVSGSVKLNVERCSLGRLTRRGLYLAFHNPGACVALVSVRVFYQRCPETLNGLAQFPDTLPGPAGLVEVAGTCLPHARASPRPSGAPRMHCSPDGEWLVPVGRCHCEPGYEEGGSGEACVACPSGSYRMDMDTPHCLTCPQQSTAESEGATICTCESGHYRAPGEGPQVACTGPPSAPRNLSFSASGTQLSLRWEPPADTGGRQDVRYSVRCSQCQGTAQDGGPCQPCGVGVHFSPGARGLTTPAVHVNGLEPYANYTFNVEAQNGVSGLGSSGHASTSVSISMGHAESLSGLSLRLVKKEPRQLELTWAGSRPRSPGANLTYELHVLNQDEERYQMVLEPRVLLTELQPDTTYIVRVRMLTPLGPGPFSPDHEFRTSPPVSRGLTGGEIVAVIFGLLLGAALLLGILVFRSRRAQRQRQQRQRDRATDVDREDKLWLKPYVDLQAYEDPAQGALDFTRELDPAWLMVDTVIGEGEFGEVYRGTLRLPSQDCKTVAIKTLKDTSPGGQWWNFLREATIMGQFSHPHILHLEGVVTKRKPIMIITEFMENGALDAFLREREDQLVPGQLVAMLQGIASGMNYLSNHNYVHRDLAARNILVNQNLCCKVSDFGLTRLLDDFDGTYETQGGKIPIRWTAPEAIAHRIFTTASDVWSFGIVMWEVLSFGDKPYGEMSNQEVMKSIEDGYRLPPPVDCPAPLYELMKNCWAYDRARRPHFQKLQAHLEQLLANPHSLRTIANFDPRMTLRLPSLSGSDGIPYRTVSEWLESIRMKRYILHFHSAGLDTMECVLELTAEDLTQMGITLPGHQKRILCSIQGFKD
Briefly: Inhibition of EPHA1 (unknown origin) at 500 nM.
Conditions: not given
`COc1cc(C(N)=O)ccc1-c1cc2c(N[C@H](CO)c3ccccc3)ncnc2s1`: the inhibition worked out at 12%.

Take `C#Cc1cccc(Nc2ncnc3cc(OCCOC)c(OCCOC)cc23)c1` [ERLOTINIB]: the inhibition came to 3%.

The target in another data set is Tyrosine-protein kinase HCK (Homo sapiens) (UniProt P08631). The data set can be described thus: Inhibition of HCK (unknown origin) at 500 nM.
Conditions: not given
As for `COc1cc(C(N)=O)ccc1-c1cc2c(N[C@H](CO)c3ccccc3)ncnc2s1`, the inhibition came out at 13%.

The target of a further data set is T2, Testis-specific serine/threonine-protein kinase 2 (Homo sapiens) (UniProt Q96PF2).
T2 sequence (whole entry): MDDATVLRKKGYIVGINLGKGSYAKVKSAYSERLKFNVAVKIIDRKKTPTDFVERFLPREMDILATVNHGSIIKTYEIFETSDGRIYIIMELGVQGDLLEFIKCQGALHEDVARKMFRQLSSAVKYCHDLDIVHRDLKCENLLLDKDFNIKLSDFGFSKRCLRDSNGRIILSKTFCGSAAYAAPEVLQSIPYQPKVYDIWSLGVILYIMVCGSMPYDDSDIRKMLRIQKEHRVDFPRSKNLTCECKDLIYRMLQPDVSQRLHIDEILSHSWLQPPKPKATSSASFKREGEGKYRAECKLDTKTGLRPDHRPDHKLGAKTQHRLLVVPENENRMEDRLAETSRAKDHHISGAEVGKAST
The data set can be described thus: Inhibition of STK22B (unknown origin) at 500 nM.
Conditions: not given
Consider `COc1cc(C(N)=O)ccc1-c1cc2c(N[C@H](CO)c3ccccc3)ncnc2s1`, for which the inhibition amounted to 11%.

System in the next data set: not listed separately
Briefly: Antiproliferative activity against human Hs578T cells after 72 hrs by CellTiter-Glo assay. The class given is functional, cell-based. The settings on record: Hs-578T.
On to `C#Cc1cccc(Nc2ncnc3cc(OCCOC)c(OCCOC)cc23)c1` [ERLOTINIB], for which the IC50 was above 100 µM.

The next data set is filed under the species Danio rerio. The data set can be described thus: Toxicity in zebrafish embryo assessed as effect on morphology upto 25 uM. It is filed as organism-based. As to conditions: in vivo.
Regarding `COc1cc(C(N)=O)ccc1-c1cc2c(N[C@H](CO)c3ccccc3)ncnc2s1`, the Activity result is given as “Non-toxic”.

`C#Cc1cccc(Nc2ncnc3cc(OCCOC)c(OCCOC)cc23)c1` [ERLOTINIB]: the Activity result is “Non-toxic”.

A further data set addresses Glycogen synthase kinase-3 beta (Homo sapiens) (UniProt P49841). Briefly: Inhibition of GSK3B (unknown origin) at 500 nM.
Conditions: not given
`COc1cc(C(N)=O)ccc1-c1cc2c(N[C@H](CO)c3ccccc3)ncnc2s1`: the inhibition is 17%.

On to `C#Cc1cccc(Nc2ncnc3cc(OCCOC)c(OCCOC)cc23)c1` [ERLOTINIB], for which the inhibition was -8%.

The test system of another data set is SW480. The data set can be described thus: Antiproliferative activity against human SW480 cells after 72 hrs by CellTiter-Glo assay. The class given is functional, cell-based. The settings on record: SW480, 72 h.
Turning to `C#Cc1cccc(Nc2ncnc3cc(OCCOC)c(OCCOC)cc23)c1` [ERLOTINIB], the IC50 was above 100 µM.

The target in a further data set is Receptor tyrosine-protein kinase erbB-2 (Homo sapiens) (UniProt P04626). Briefly: Inhibition of ERBB2 (unknown origin) at 500 nM.
Chain of Receptor tyrosine-protein kinase erbB-2 (Homo sapiens) (P04626 whole entry): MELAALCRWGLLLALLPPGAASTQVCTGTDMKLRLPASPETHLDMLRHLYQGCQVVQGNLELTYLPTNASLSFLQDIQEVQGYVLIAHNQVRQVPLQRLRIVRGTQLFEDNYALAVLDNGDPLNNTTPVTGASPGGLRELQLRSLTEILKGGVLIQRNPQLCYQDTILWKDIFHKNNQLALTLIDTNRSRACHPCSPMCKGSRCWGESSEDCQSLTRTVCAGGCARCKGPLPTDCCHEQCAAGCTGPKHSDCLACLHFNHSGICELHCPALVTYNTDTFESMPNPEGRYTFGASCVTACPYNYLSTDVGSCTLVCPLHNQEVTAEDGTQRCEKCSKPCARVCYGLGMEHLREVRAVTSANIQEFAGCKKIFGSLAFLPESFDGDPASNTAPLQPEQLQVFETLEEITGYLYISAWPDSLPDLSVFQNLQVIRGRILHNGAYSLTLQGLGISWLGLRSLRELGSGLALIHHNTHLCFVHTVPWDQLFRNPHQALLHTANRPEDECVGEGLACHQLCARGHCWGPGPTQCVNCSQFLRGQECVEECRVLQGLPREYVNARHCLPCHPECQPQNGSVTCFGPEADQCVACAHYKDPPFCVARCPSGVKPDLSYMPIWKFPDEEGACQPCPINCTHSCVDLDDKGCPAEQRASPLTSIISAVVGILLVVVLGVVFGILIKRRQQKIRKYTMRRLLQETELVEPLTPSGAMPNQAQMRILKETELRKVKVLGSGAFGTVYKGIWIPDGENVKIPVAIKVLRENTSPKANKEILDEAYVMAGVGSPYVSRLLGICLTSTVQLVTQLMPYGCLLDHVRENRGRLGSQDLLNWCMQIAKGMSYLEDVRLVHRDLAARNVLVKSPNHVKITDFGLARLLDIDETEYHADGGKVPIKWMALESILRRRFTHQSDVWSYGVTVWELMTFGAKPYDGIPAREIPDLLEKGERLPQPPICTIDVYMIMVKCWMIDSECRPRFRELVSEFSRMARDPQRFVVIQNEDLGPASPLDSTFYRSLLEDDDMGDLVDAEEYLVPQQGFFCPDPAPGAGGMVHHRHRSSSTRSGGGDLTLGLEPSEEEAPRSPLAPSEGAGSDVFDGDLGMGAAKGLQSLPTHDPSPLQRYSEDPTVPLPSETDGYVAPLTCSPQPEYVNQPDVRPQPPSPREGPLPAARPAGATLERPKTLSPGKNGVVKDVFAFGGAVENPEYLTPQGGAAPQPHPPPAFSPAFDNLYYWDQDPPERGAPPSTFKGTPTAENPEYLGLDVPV
Conditions: not given
For `COc1cc(C(N)=O)ccc1-c1cc2c(N[C@H](CO)c3ccccc3)ncnc2s1`, the inhibition was determined as 37%.

For the next data set, the system named is FaDu. The data set can be described thus: Antiproliferative activity against human FADU cells. The class given is functional, cell-based.
Conditions: not given
`C#Cc1cccc(Nc2ncnc3cc(OCCOC)c(OCCOC)cc23)c1` [ERLOTINIB] displayed an IC50 of 18 µM. This counts as double-digit micromolar.

System in another data set: not listed separately
The data set can be described thus: Antiproliferative activity against human SKBR3 cells after 72 hrs by CellTiter blue assay. It is filed as functional, cell-based. The settings on record: SK-BR-3, 72 h.
Turning to `C#Cc1cccc(Nc2ncnc3cc(OCCOC)c(OCCOC)cc23)c1` [ERLOTINIB], the IC50 is above 100 µM.

System in the next data set: not listed separately
The data set can be described thus: Toxicity in zebrafish embryo assessed as morphological defects for 3.5 days. The class given is organism-based, Danio rerio.
Conditions: not given
A word on the EC50: it is the concentration that produces a half-maximal response. In the case of `COc1cc(C(N)=O)ccc1-c1cc2c(N[C@H](CO)c3ccccc3)ncnc2s1`, the EC50 at 3.5 days turned out to be 46 µM.

In the case of `C#Cc1cccc(Nc2ncnc3cc(OCCOC)c(OCCOC)cc23)c1` [ERLOTINIB], the EC50 at 3.5 days stood at 60 µM.

System in another data set: not listed separately
The data set can be described thus: Antiproliferative activity against human Calu3 cells after 72 hrs by CellTiter blue assay. It is filed as functional, cell-based. As to conditions: Calu-3, 72 h.
For the molecule `C#Cc1cccc(Nc2ncnc3cc(OCCOC)c(OCCOC)cc23)c1` [ERLOTINIB], 4.7 µM corresponded to half-maximal inhibition (IC50). In other words, the single-digit micromolar range.

System in the next data set: not listed separately
The data set can be described thus: Antiproliferative activity against human BT474 cells after 72 hrs by CellTiter blue assay. It is filed as functional, cell-based. The settings on record: BT-474, 72 h.
As for `C#Cc1cccc(Nc2ncnc3cc(OCCOC)c(OCCOC)cc23)c1` [ERLOTINIB], 13 µM corresponded to half-maximal inhibition (IC50).

The species entered for the next data set is Danio rerio. Briefly: Toxicity in zebrafish embryo assessed as kinked tails at 50 and 100 uM. The class given is organism-based. As to conditions: in vivo.
`COc1cc(C(N)=O)ccc1-c1cc2c(N[C@H](CO)c3ccccc3)ncnc2s1`: the Activity result is recorded as “Toxic”.

Regarding `C#Cc1cccc(Nc2ncnc3cc(OCCOC)c(OCCOC)cc23)c1` [ERLOTINIB], the Activity result is reported as “Toxic”.
